Assay results published in patent publication US10287252B2, “Inhibitors of tryptophan-2,3-dioxygenase or indoleamine-2,3-dioxygenase” (IOmet Pharma Ltd., priority 2014, dated 2019).

Key:
IDO = IDO (Homo sapiens, UniProt P14902); assay: SKOV3 Kynurenine cell based assay; parameters: IDO expression was induced in the SKOV3 cells by the addition of 500 ng/ml IFN-γ; endogenous in cells; host or cells: SKOV3 (human ovarian adenocarcinoma), induced with IFN-γ; conditions: SKOV3 (human ovarian adenocarcinoma) cells, IDO induced by 500 ng/ml IFN-γ, 500 μM L-tryptophan, 48 hours
IDO, sequence (P14902 whole entry): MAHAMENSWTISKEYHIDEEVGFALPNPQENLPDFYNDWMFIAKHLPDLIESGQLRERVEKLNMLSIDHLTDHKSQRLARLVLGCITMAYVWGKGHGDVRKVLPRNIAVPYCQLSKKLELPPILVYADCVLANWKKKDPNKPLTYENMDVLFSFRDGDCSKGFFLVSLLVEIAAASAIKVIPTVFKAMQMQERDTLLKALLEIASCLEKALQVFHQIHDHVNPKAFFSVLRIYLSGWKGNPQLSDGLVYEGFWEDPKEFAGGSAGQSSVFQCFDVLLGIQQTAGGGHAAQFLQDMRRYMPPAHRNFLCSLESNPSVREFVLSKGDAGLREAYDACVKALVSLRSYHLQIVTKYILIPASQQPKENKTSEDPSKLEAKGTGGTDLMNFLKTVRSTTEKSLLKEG
Method: (§1) Exemplary compounds of the invention were prepared, and tested to determine their effect as TDO and/or IDO inhibitors. Two different assays were employed: 1. a cell-based assay for detecting the effect of test compounds on kynurenine production in two different cancer cell types. This assay utilised cancer cells which expressed either TDO or IDO and as such was used as a means of testing compound activity at these two enzymes in a cell-based context. 2. a TDO and IDO biochemical coupled assay which utilised recombinantly produced and purified TDO and IDO enzymes in combination with the enzyme formamidase. This coupled enzyme system allowed conversion of N-formylkynurenine produced by TDO or IDO activity to kynurenine which was then quantified by fluorescence following addition of Erhlich's Reagent The protocols for these are set out below.
(§2) Cell Based Assay for Detection of Kynurenine Produced by TDO and/or IDO
(§3) A172 (human glioblastoma) and SKOV3 (human ovarian adenocarcinoma) cells were seeded in a 96 well plate at 30,000 or 40,000 cells per well respectively in phenol red-free RPMI supplemented with 10% FCS, 2 mM L-glutamine and 500 μM L-tryptophan. IDO expression was induced in the SKOV3 cells by the addition of 500 ng/ml IFN-γ. Cells were incubated at 37° C. with or without the addition of test compound. After 48 hours, the cells were removed by centrifugation and Erhlich's reagent was added to the supernatant. The Erhlich's reagent was incubated for 5 minutes before the absorbance was read at 490 nm.

TDO = TDO (Homo sapiens, UniProt P48775); assay: A172 Kynurenine cell based assay; parameters: This assay utilised cancer cells which expressed either TDO or IDO; endogenous in cells; host or cells: A172 (human glioblastoma); conditions: A172 (human glioblastoma) cells, 500 μM L-tryptophan, 48 hours, kynurenine by Erhlich's reagent
TDO, sequence (P48775 whole entry): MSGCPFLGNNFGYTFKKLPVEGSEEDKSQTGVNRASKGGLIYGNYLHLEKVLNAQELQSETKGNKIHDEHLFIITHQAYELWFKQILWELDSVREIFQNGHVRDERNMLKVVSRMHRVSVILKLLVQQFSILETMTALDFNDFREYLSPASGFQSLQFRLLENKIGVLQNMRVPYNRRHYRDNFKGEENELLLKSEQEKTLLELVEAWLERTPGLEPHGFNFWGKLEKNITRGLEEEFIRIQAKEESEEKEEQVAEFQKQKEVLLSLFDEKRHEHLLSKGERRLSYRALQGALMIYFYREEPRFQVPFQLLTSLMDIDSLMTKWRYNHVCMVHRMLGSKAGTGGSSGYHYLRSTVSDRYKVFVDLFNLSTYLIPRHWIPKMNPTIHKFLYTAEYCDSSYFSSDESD
Method: as §1, §2, §3

Compound | SKOV3 Kynurenine cell based assay pIC50 (IDO) | A172 Kynurenine cell based assay pIC50 (TDO)
CC(C)CS(=O)(=O)N(c1cccc2cnccc12)S(=O)(=O)CC(C)C [Compound 5] | + (+ = pIC50 4.00-4.49) | +/− (+/− = pIC50 <4.00)
O=C(Nc1cccc2cnccc12)c1ccccc1 [Compound 7] | + (+ = pIC50 4.00-4.49) | +/− (+/− = pIC50 <4.00)
CN1CCOC(C(=O)Nc2cccc3cnccc23)C1 (stereo not drawn) [Compound 8] | ++ (++ = pIC50 4.50-5.49) | ++ (++ = pIC50 4.50-5.49)
Cc1ccc(S(=O)(=O)Nc2cccc3cnccc23)cc1 [Compound 10] | ++ (++ = pIC50 4.50-5.49) | +/− (+/− = pIC50 <4.00)
O=S(=O)(Nc1cccc2cnccc12)c1ccccc1Cl [Compound 11] | ++ (++ = pIC50 4.50-5.49) | ++ (++ = pIC50 4.50-5.49)
O=S(=O)(Nc1cccc2cnccc12)c1ccc(Cl)cc1 [Compound 12] | ++ (++ = pIC50 4.50-5.49) | ++ (++ = pIC50 4.50-5.49)
O=S(=O)(Nc1cccc2cnccc12)c1cccc(Cl)c1 [Compound 13] | ++ (++ = pIC50 4.50-5.49) | ++ (++ = pIC50 4.50-5.49)
CCCS(=O)(=O)Nc1cccc2cnccc12 [Compound 15] | +/− (+/− = pIC50 <4.00) | ++ (++ = pIC50 4.50-5.49)
Cc1cccc(S(=O)(=O)Nc2cccc3cnccc23)c1 [Compound 17] | ++ (++ = pIC50 4.50-5.49) | +++ (+++ = pIC50 ≥5.50)
COc1ccc(S(=O)(=O)Nc2cccc3cnccc23)cc1OC [Compound 18] | + (+ = pIC50 4.00-4.49) | +/− (+/− = pIC50 <4.00)
O=S(=O)(Nc1cccc2cnccc12)c1ccc2c(c1)OCCO2 [Compound 19] | +++ (+++ = pIC50 ≥5.50) | +++ (+++ = pIC50 ≥5.50)
O=S(=O)(Nc1cccc2cnccc12)c1ccc(-c2ccccc2)cc1 [Compound 20] | +++ (+++ = pIC50 ≥5.50) | +++ (+++ = pIC50 ≥5.50)
O=S(=O)(Nc1cccc2cnccc12)c1ccccc1F [Compound 21] | ++ (++ = pIC50 4.50-5.49) | ++ (++ = pIC50 4.50-5.49)
O=S(=O)(Nc1cccc2cnccc12)c1ccc(F)cc1 [Compound 22] | + (+ = pIC50 4.00-4.49) | +++ (+++ = pIC50 ≥5.50)
O=S(=O)(Nc1cccc2cnccc12)c1ccc(F)cc1F [Compound 23] | + (+ = pIC50 4.00-4.49) | +/− (+/− = pIC50 <4.00)
CC(=O)Nc1ccc(S(=O)(=O)Nc2cccc3cnccc23)cc1 [Compound 24] | ++ (++ = pIC50 4.50-5.49) | +/− (+/− = pIC50 <4.00)
O=S(=O)(Nc1cccc2cnccc12)c1cccc(OC(F)F)c1 [Compound 26] | ++ (++ = pIC50 4.50-5.49) | +++ (+++ = pIC50 ≥5.50)
Cc1ccccc1S(=O)(=O)Nc1cccc2cnccc12 [Compound 27] | ++ (++ = pIC50 4.50-5.49) | +++ (+++ = pIC50 ≥5.50)
